Data as given in ChEMBL document CHEMBL2401658, “Selectivity of phenothiazine cholinesterase inhibitors for neurotransmitter systems” (Bioorg Med Chem Lett, 2013).

Assays:
[1] = molecular target: Sodium-dependent dopamine transporter (Homo sapiens, UniProt Q01959); assay: Antagonist activity at DAT (unknown origin) by PDSP assay
Cholinesterase = Cholinesterase (Homo sapiens, UniProt P06276); assay: Inhibition of BuChE (unknown origin)
[2] = molecular target: Muscarinic acetylcholine receptor M5 (Homo sapiens, UniProt P08912); assay: Antagonist activity at muscarinic M5 receptor (unknown origin) by PDSP assay
Sequence of Muscarinic acetylcholine receptor M5 (P08912 whole entry): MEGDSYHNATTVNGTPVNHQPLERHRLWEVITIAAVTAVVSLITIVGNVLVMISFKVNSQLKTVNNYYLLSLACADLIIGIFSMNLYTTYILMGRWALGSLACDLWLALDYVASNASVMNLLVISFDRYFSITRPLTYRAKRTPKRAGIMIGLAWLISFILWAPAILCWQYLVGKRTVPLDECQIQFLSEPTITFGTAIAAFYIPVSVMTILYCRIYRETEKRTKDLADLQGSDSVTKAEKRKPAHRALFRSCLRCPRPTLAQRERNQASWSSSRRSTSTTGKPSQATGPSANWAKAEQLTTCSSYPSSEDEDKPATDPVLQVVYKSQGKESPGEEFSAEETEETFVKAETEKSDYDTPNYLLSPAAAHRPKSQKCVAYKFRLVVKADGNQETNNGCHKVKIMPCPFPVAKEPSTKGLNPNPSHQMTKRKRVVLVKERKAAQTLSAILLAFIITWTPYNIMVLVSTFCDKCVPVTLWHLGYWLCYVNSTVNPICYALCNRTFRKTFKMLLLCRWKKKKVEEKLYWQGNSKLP

[3] = molecular target: Muscarinic acetylcholine receptor M3 (Homo sapiens, UniProt P20309); assay: Antagonist activity at muscarinic M3 receptor (unknown origin) by PDSP assay
[4] = molecular target: Muscarinic acetylcholine receptor M4 (Homo sapiens, UniProt P08173); assay: Antagonist activity at muscarinic M4 receptor (unknown origin) by PDSP assay
[5] = molecular target: Muscarinic acetylcholine receptor M2 (Homo sapiens, UniProt P08172); assay: Antagonist activity at muscarinic M2 receptor (unknown origin) by PDSP assay
Sequence of Muscarinic acetylcholine receptor M2 (P08172 whole entry): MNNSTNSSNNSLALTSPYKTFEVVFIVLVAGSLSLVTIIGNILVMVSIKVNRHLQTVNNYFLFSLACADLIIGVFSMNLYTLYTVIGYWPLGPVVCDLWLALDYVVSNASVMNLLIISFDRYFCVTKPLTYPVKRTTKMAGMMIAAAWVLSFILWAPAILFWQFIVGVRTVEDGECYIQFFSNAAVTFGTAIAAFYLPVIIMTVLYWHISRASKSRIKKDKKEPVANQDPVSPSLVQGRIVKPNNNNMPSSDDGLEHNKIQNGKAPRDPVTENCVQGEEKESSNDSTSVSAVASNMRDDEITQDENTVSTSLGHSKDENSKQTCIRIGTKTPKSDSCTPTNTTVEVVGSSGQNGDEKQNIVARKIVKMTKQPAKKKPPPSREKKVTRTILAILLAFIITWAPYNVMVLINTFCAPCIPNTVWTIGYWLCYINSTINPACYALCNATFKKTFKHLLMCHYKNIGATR

Histamine H3 receptor = Histamine H3 receptor (Homo sapiens, UniProt Q9Y5N1); assay: Antagonist activity at histamine H3 receptor (unknown origin) by PDSP assay
[6] = molecular target: Muscarinic acetylcholine receptor M1 (Homo sapiens, UniProt P11229); assay: Antagonist activity at muscarinic M1 receptor (unknown origin) by PDSP assay
[7] = molecular target: Alpha-2C adrenergic receptor (Homo sapiens, UniProt P18825); assay: Antagonist activity at adrenergic alpha2C receptor (unknown origin) by PDSP assay
Histamine H1 receptor = Histamine H1 receptor (Homo sapiens, UniProt P35367); assay: Antagonist activity at histamine H1 receptor (unknown origin) by PDSP assay
[8] = molecular target: 5-hydroxytryptamine receptor 3A (Homo sapiens, UniProt P46098); assay: Antagonist activity at serotonin 5HT3 receptor (unknown origin) by PDSP assay
Sequence of 5-hydroxytryptamine receptor 3A (P46098 whole entry): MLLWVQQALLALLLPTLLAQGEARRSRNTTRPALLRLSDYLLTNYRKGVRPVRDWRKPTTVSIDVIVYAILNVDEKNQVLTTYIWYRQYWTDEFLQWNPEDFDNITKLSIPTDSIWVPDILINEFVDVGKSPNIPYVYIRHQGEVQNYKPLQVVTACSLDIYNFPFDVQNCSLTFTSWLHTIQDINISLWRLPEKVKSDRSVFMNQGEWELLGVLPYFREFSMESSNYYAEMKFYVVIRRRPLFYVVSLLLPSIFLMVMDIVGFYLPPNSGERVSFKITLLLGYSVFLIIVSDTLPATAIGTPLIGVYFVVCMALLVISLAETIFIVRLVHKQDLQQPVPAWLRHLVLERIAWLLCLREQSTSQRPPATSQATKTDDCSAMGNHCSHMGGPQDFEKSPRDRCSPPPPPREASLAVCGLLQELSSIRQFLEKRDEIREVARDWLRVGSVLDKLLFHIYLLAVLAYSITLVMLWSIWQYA

[9] = molecular target: 5-hydroxytryptamine receptor 1D (Homo sapiens, UniProt P28221); assay: Antagonist activity at serotonin 5HT1D receptor (unknown origin) by PDSP assay
Histamine H2 receptor = Histamine H2 receptor (Homo sapiens, UniProt P25021); assay: Antagonist activity at histamine H2 receptor (unknown origin) by PDSP assay
Sequence of Histamine H2 receptor (P25021 whole entry): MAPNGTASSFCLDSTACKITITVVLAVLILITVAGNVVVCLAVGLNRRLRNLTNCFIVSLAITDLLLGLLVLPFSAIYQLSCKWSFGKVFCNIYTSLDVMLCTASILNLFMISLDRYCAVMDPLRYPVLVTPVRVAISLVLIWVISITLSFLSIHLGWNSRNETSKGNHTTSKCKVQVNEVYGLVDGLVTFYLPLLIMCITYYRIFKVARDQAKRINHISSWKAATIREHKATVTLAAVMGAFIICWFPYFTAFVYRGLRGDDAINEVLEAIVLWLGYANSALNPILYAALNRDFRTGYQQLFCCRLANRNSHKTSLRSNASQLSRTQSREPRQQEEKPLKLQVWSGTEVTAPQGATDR

D(3) dopamine receptor = D(3) dopamine receptor (Homo sapiens, UniProt P35462); assay: Antagonist activity at dopamine D3 receptor (unknown origin) by PDSP assay
Sequence of D(3) dopamine receptor (P35462 whole entry): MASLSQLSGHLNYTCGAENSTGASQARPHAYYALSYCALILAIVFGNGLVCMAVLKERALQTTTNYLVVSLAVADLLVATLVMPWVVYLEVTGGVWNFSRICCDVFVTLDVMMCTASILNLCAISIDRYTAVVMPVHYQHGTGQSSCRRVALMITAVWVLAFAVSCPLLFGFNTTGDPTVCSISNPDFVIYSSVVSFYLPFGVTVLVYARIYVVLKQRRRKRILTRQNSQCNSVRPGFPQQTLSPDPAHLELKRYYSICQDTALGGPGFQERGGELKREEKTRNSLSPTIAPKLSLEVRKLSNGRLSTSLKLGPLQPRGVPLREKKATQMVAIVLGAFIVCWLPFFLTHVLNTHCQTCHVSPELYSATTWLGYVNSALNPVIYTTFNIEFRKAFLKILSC

[10] = molecular target: T1, 5-hydroxytryptamine receptor 2C (Homo sapiens, UniProt P28335); assay: Antagonist activity at serotonin 5HT2C receptor (unknown origin) by PDSP assay
T1 sequence (P28335 whole entry): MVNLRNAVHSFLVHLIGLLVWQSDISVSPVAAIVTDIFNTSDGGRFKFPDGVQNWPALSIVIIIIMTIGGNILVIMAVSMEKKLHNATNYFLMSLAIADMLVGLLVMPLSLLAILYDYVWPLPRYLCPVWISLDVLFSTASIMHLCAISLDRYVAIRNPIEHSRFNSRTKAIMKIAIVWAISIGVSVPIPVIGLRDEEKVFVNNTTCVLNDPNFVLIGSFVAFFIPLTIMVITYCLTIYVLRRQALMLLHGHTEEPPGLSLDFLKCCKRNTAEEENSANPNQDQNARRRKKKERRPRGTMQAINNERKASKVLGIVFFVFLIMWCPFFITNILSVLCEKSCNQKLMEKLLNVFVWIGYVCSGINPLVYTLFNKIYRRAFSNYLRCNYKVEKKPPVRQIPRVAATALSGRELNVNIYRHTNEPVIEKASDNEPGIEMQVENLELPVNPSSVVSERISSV

[11] = molecular target: T2, 5-hydroxytryptamine receptor 1A (Homo sapiens, UniProt P08908); assay: Antagonist activity at serotonin 5HT1A receptor (unknown origin) by PDSP assay
T2 sequence (P08908 whole entry): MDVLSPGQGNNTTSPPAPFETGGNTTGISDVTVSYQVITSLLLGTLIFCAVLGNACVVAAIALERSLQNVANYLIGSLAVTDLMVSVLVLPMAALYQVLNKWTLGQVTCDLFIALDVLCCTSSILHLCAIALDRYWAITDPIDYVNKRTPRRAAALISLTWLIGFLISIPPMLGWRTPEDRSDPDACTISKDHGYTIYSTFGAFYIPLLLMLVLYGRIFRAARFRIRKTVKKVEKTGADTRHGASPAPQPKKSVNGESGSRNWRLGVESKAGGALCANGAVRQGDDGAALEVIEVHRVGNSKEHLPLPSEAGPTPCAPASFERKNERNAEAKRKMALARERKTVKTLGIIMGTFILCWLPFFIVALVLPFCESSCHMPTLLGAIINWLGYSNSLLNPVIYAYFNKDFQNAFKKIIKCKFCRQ

[12] = molecular target: 5-hydroxytryptamine receptor 2B (Homo sapiens, UniProt P41595); assay: Antagonist activity at serotonin 5HT2B receptor (unknown origin) by PDSP assay
Sequence of 5-hydroxytryptamine receptor 2B (P41595 whole entry): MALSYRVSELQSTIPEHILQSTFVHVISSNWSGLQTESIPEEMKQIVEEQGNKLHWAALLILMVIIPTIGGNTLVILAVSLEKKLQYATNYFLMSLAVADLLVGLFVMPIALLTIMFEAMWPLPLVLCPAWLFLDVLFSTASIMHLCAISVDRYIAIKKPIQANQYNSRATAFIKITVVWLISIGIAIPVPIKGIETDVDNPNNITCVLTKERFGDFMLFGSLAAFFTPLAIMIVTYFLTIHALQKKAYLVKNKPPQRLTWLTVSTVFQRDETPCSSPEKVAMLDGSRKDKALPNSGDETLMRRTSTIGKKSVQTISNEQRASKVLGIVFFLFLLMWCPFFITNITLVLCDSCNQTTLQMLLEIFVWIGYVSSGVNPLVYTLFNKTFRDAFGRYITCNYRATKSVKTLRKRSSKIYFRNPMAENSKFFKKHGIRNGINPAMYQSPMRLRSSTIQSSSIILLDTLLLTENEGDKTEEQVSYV

[13] = molecular target: 5-hydroxytryptamine receptor 2A (Homo sapiens, UniProt P28223); assay: Antagonist activity at serotonin 5HT2A receptor (unknown origin) by PDSP assay
Sequence of 5-hydroxytryptamine receptor 2A (P28223 whole entry): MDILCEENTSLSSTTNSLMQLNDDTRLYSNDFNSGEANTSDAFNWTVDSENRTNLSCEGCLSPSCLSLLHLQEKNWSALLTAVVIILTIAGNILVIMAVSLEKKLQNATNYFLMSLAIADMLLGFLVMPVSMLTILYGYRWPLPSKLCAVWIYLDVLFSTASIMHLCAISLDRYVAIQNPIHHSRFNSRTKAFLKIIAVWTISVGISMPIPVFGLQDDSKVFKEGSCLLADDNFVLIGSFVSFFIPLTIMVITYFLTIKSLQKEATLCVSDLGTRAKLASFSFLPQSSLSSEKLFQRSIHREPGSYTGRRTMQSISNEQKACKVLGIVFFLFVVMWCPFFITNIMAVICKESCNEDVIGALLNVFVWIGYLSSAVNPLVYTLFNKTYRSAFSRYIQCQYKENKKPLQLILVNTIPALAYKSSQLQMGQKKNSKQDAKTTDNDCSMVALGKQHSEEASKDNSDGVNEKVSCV

[14] = molecular target: Sodium-dependent serotonin transporter (Homo sapiens, UniProt P31645); assay: Antagonist activity at serotonin transporter (unknown origin) by PDSP assay
[15] = molecular target: Alpha-1D adrenergic receptor (Homo sapiens, UniProt P25100); assay: Antagonist activity at adrenergic alpha 1D receptor (unknown origin) by PDSP assay
[16] = molecular target: Beta-3 adrenergic receptor (Homo sapiens, UniProt P13945); assay: Antagonist activity at adrenergic beta3 receptor (unknown origin) by PDSP assay
[17] = molecular target: Alpha-2B adrenergic receptor (Homo sapiens, UniProt P18089); assay: Antagonist activity at adrenergic alpha2B receptor (unknown origin) by PDSP assay
D(1A) dopamine receptor = D(1A) dopamine receptor (Homo sapiens, UniProt P21728); assay: Antagonist activity at dopamine D1 receptor (unknown origin) by PDSP assay
[18] = molecular target: 5-hydroxytryptamine receptor 7 (Homo sapiens, UniProt P34969); assay: Antagonist activity at serotonin 5HT7 receptor (unknown origin) by PDSP assay
[19] = molecular target: Alpha-2A adrenergic receptor (Homo sapiens, UniProt P08913); assay: Antagonist activity at adrenergic alpha2A receptor (unknown origin) by PDSP assay
[20] = molecular target: 5-hydroxytryptamine receptor 5A (Homo sapiens, UniProt P47898); assay: Antagonist activity at serotonin 5HT5A receptor (unknown origin) by PDSP assay
[21] = molecular target: 5-hydroxytryptamine receptor 1B (Homo sapiens, UniProt P28222); assay: Antagonist activity at serotonin 5HT1B receptor (unknown origin) by PDSP assay
[22] = molecular target: Alpha-1A adrenergic receptor (Homo sapiens, UniProt P35348); assay: Antagonist activity at adrenergic alpha1A receptor (unknown origin) by PDSP assay
[23] = molecular target: 5-hydroxytryptamine receptor 6 (Homo sapiens, UniProt P50406); assay: Antagonist activity at serotonin 5HT6 receptor (unknown origin) by PDSP assay
Sequence of 5-hydroxytryptamine receptor 6 (P50406 whole entry): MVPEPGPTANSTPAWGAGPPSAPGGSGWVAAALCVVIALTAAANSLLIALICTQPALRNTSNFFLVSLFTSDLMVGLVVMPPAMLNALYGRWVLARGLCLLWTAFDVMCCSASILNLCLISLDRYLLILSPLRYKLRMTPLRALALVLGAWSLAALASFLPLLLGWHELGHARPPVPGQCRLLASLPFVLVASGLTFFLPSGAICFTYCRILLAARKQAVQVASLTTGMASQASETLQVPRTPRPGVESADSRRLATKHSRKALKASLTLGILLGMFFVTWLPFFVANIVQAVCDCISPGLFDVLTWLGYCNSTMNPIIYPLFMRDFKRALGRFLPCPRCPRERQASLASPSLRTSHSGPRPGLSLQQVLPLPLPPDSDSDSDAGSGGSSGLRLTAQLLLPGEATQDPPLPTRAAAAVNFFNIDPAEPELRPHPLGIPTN

Sequence of Cholinesterase (P06276 whole entry): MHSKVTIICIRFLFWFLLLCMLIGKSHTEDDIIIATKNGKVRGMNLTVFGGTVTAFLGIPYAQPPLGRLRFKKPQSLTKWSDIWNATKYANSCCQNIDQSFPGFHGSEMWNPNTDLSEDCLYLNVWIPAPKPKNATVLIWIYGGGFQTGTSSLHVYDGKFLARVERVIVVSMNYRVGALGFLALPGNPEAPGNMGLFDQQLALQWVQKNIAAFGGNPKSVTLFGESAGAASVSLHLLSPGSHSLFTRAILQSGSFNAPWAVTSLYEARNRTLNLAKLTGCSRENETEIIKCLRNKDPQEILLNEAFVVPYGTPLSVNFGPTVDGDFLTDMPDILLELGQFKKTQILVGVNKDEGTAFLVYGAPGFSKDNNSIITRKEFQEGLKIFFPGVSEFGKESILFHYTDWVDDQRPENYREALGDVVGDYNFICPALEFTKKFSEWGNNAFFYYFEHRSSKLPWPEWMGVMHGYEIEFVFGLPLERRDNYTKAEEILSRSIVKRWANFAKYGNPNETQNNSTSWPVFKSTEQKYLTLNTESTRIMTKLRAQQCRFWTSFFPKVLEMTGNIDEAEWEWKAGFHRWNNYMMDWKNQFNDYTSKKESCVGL
Sequence of Sodium-dependent dopamine transporter (Q01959 whole entry): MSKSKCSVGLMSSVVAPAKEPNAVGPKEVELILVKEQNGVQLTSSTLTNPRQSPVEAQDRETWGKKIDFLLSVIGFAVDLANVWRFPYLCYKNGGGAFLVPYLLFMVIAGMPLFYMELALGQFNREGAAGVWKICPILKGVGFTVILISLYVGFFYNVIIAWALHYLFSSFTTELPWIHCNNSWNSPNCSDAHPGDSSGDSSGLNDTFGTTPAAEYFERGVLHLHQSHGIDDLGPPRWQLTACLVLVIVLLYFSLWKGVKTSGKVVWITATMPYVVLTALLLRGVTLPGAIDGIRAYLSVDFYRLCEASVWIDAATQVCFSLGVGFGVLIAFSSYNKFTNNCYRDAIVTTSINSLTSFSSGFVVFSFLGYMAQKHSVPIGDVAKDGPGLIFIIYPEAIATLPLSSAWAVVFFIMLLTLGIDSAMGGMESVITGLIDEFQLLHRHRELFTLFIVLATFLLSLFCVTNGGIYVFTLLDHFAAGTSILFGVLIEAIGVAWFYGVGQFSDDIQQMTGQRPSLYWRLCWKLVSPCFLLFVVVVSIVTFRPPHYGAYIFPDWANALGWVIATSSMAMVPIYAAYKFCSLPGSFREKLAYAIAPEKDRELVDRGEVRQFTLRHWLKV

`O=C(c1cccc(Br)c1)N1c2ccccc2Sc2ccccc21` was tested, and the Ki [1] was 0.092 µM.
Work on `O=C(Oc1cccc2ccccc12)N1c2ccccc2Sc2ccccc21` yielded a Ki [1] of 3.9 µM and a Ki (Cholinesterase) of 0.04 µM.
In the case of `CCN(CC)CCCOC(=O)N1c2ccccc2Sc2ccccc21`, the Ki [2] is reported as 0.12 µM, the Ki [3] is reported as 0.17 µM and the Ki [4] is reported as 0.021 µM. It also gave a Ki [5] of 0.22 µM, a Ki (Histamine H3 receptor) of 0.96 µM and a Ki [6] of 0.064 µM. It also gave a Ki [7] of 0.6 µM, a Ki (Histamine H1 receptor) of 0.43 µM and a Ki [8] of 3.9 µM. For the same compound, the Ki [9] was 2.7 µM, the Ki (Histamine H2 receptor) was 1.4 µM and the Ki (D(3) dopamine receptor) was 1 µM. It also gave a Ki [10] of 3.1 µM, a Ki [11] of 0.45 µM and a Ki [12] of 0.63 µM. It also gave a Ki [1] of 6 µM and a Ki [13] of 3.6 µM.
`O=C(CCCc1ccccc1)N1c2ccccc2Sc2ccccc21` showed a Ki (Histamine H2 receptor) of 7.5 µM, a Ki [14] of 3.8 µM and a Ki [15] of 4.1 µM. The Ki [16] was 1.7 µM, the Ki [1] was 3.3 µM and the Ki [13] was 1.6 µM.
Work on `O=C(OCCN1CCCC1)N1c2ccccc2Sc2ccccc21` yielded a Ki [17] of 0.8 µM, a Ki (D(1A) dopamine receptor) of 5.9 µM and a Ki [18] of 0.33 µM. For the same compound, the Ki [19] was 0.095 µM, the Ki [20] was 2.2 µM and the Ki [2] was 0.006 µM. The Ki [21] was 2.2 µM, the Ki [3] was 0.066 µM and the Ki [4] was 0.054 µM. The Ki [5] was 0.1 µM, the Ki (Histamine H3 receptor) was 6 µM and the Ki [6] was 0.002 µM. It also gave a Ki [7] of 0.83 µM, a Ki (Histamine H1 receptor) of 0.029 µM and a Ki [8] of 1.9 µM. It also gave a Ki (Histamine H2 receptor) of 0.54 µM, a Ki (D(3) dopamine receptor) of 1 µM and a Ki [10] of 0.94 µM. The Ki [11] was 1.7 µM, the Ki [12] was 0.1 µM and the Ki [1] was 0.97 µM. For the same compound, the Ki [13] was 2.4 µM.
Compound `O=C(Cc1ccc2ccccc2c1)N1c2ccccc2Sc2ccccc21` has a Ki [22] of 0.33 µM, a Ki [23] of 9.9 µM and a Ki [10] of 2.2 µM. The Ki [12] was 2 µM, the Ki [1] was 6.6 µM and the Ki (Cholinesterase) was 0.03 µM.
`CC(C(=O)N1c2ccccc2Sc2ccccc21)c1ccccc1` (stereo not drawn) showed a Ki (D(3) dopamine receptor) of 8.9 µM, a Ki [23] of 1.2 µM and a Ki [16] of 2.5 µM. The Ki [10] was 0.39 µM, the Ki [11] was 1.1 µM and the Ki [12] was 0.17 µM. The Ki [13] was 0.18 µM.
For `O=C(C1CCCCCC1)N1c2ccccc2Sc2ccccc21`, the Ki (Cholinesterase) was 0.86 µM and the Ki [13] was 1.7 µM.
